Results taken from US11220482B2, “Aminopyridinemethanol compounds and their use” (UNIVERSITE AMIENS PICARDIE JULES VERNE, priority 2017, dated 2022).
Read-outs that look alike come from different tables or passages of the source.

Assays:
[1] = system: P. falciparum D6, W2 and 3D7 strains; conditions: cited from earlier work
Plasmodium falciparum W2 = assay: Plasmodium falciparum susceptibility assay, first round (SYBR Green I); format: cell-based; conditions: W2, first round, 48-h incubation, strain resistant to CQ, sensitive to MQ, read-out: IC50 (nM) Plasmodium falciparum W2 (converted)
Salmonella strains = assay: Bacterial reverse mutation assay (Ames test), overall conclusion; format: cell-based, S. typhimurium; conditions: all tested doses, absence or presence of the metabolizing mixture
Experimental: Five strains of S. typhimurium were used. […] An additional strain has been chosen to detect cross-linking mutagens, hydrazines and oxidative agents: TA102, which have an AT base pair at the primary reversion site. Salmonella tester strains were gifts from Prof. B. N. Ames (Berkeley, Calif., USA). They were stored at −80° C. and regularly checked for genetic markers.
Few crystals of the frozen working strains were taken with a sterile pipette, and seeded in 10 mL of nutrient broth (NB No 2, Oxoid). Strains were grown overnight at 37° C. with shaking in Nutrient Broth No. 2, with ampicillin (25 μg/mL) for TA1535, TA97a, TA98, and TA 100, or ampicillin (25 μg/mL) plus tetracyclin (2 μg/mL) for TA 102. At the end of the incubation period, 0.1 mL of each overnight culture was mixed to 0.1 mL S9 Mix or 0.1 mL phosphate-buffered saline (PBS, pH 7.4) in 5 mL plastic tubes and various volumes of the tested samples were added to the mixtures. Each experiment included triplicate plates of four tested doses. A solvent (DMSO, 10 μL) control was added to determine the spontaneous frequency of revertants (quadruple plates). Five positive controls were also included to ensure the performance of the tester strains and the S9 Mix. […] After hardening, the plates were incubated at 37° C. for 48 hours.
At the end of the incubation period, revertants were counted with a laser colony counter equipped with a bacterial enumeration program (Spiral System Instrument Inc., Bethesda, Md., USA).
The Dunnett test was performed to determine a significant difference between the mean number of induced revertants and the mean number of spontaneous revertants.

CHO-K1 cells [2] = conditions: Chinese hamster, 24 h
Experimental: All the assays were conducted in duplicate. The CHO-K1 cells, suspended in Mac Coy's 5A medium, were transferred into Labteck wells at a concentration of 100,000 cells/mL, and incubated for 24 hours at 37° C. in CO2 (5%).
The test was performed without metabolic activation: the test substances were added into cell cultures at concentrations previously defined. […] After 24 hours of incubation at 37° C. in CO2 (5%), the culture medium was removed, the cells were rinsed with phosphate buffered saline (PBS), and then returned in culture medium containing […] of cytochalasine B. After a 24-hour incubation period at 37° C., cells were rinsed with phosphate buffered saline (PBS), fixed with methanol and stained with 10% Giemsa for 20 minutes.
(§1) The analysis of results was performed under a microscope at ×1000 magnification. The antiproliferative activity of test substances was estimated by counting the number of binucleated cells relative to the number of mononucleated cells on a total of 500 cells for each dose (250 cells counted per well). The proliferation index (Cytokinesis Blocked Proliferative Index CBPI) was calculated using the following formula:
(§2) The cytostasis index (CI %), i.e. the percentage of cell replication inhibition, was calculated using the following formula: CI %−100−{100×(CBPItest material−1)/(CBPIsolvent control−1)}
(§3) The rates of micronuclei were evaluated for the presence of independent nuclear core entities in 1000 binucleated cells per well, which corresponds to 2000 cells examined by test substance dose. Micronuclei were identified as small nuclei well differentiated from cell nucleus, stained in the same manner and having a diameter less than one third of that of the cell nucleus.
(§4) Micronuclei rates obtained for different doses of test substances were compared to the negative control by a χ2 test. The assay was considered positive if: • A dose-response relationship was obtained between the rate of micronuclei and the doses tested, • At least one of these doses induced a statistically significant increase (P<0.05) in the number of micronucleated cells as compared to the negative control.

[3] = system: Plasmodium falciparum 3D7; assay: Plasmodium falciparum susceptibility assay, first round (SYBR Green I); format: cell-based; conditions: 3D7, first round, 48-h incubation, strain susceptible to CQ, decreased susceptibility to MQ, read-out: IC50 (nM) Plasmodium falciparum 3D7 (converted)
S. typhimurium TA98 = assay: Bacterial reverse mutation assay (Ames test)
CHO-K1 cells [4] = assay: In vitro micronucleus assay, short-term exposure
Experimental: All the assays were conducted in duplicate. The CHO-K1 cells, suspended in McCoy's 5A medium, were transferred into Labteck wells at a concentration of 100,000 cells/mL, and incubated for 24 hours at 37° C. in CO2 (5%).
When the test was performed without metabolic activation, the test substances were added into cell cultures at concentrations previously defined.
When the assay was performed in the presence of metabolic activation, S9 mix metabolizing mixture was added to cell cultures at a concentration of 10%. Then the test substances were added to the cell cultures at concentrations previously defined.
After 3 hours of incubation at 37° C. in CO2 (5%), the culture medium was removed, the cells were rinsed with phosphate buffered saline (PBS), and then returned to culture in McCoy's 5A medium containing […] of cytochalasin B. After a 21-hour incubation period at 37° C., cells were rinsed with phosphate buffered saline (PBS), fixed with methanol and stained with 10% Giemsa for 20 minutes.
as §1, §2, §3, §4

P. falciparum 3D7 = assay: P. falciparum growth inhibition assay, second round (SYBR Green I, ICEstimator); format: cell-based, Plasmodium falciparum; conditions: Plasmodium falciparum, 3D7, 48 h
P. falciparum W2 = assay: as above; format: cell-based; conditions: Plasmodium falciparum, 48 h

Structure (SMILES): O[C@H](c1cc(C(F)(F)F)nc2c(C(F)(F)F)cccc12)[C@@H]1CCCCN1 [(+)-mefloquine]
- factor by which more active than the other mefloquine isomer [1]: 1.6-1.8

Structure (SMILES): CCCCCNC[C@@H](O)c1ccc(-c2ccc(C(F)(F)F)cc2)nc1C(F)(F)F [Compound 30c, (S)-2-(Pentylamino)-1-(2-(trifluoromethyl)-6-(4-(trifluoromethyl)phenyl)pyridin-3-yl)ethanol]
- Number of revertants by plate (Means ± SD), TA97a (S. typhimurium TA97a; with S9 mix, 0.4 μg/plate): 128 ± 10^NS
- Number of revertants by plate (Means ± SD), TA97a (S. typhimurium TA97a; with S9 mix, 0.6 μg/plate): 134 ± 8^NS
- Number of revertants by plate (Means ± SD), TA97a (S. typhimurium TA97a; with S9 mix, 0.8 μg/plate): 137 ± 11^NS
- Number of revertants by plate (Means ± SD), TA97a (S. typhimurium TA97a; with S9 mix, 1 μg/plate): 125 ± 8^NS
- Number of revertants by plate (Means ± SD), TA97a (S. typhimurium TA97a; without S9 mix, 0.4 μg/plate): 148 ± 8^NS
- Number of revertants by plate (Means ± SD), TA97a (S. typhimurium TA97a; without S9 mix, 0.6 μg/plate): 155 ± 6^NS
- Number of revertants by plate (Means ± SD), TA97a (S. typhimurium TA97a; without S9 mix, 0.8 μg/plate): 159 ± 8^NS
- Number of revertants by plate (Means ± SD), TA97a (S. typhimurium TA97a; without S9 mix, 1 μg/plate): 138 ± 8^NS
- Number of revertants by plate (Means ± SD), TA100 (S. typhimurium TA100; with S9 mix, 0.4 μg/plate): 202 ± 8^NS
- Number of revertants by plate (Means ± SD), TA100 (S. typhimurium TA100; with S9 mix, 0.6 μg/plate): 183 ± 12^NS
- Number of revertants by plate (Means ± SD), TA100 (S. typhimurium TA100; with S9 mix, 0.8 μg/plate): 178 ± 11^NS
- Number of revertants by plate (Means ± SD), TA100 (S. typhimurium TA100; with S9 mix, 1 μg/plate): 168 ± 12^NS
- Number of revertants by plate (Means ± SD), TA100 (S. typhimurium TA100; without S9 mix, 0.4 μg/plate): 197 ± 6^NS
- Number of revertants by plate (Means ± SD), TA100 (S. typhimurium TA100; without S9 mix, 0.6 μg/plate): 201 ± 9^NS
- Number of revertants by plate (Means ± SD), TA100 (S. typhimurium TA100; without S9 mix, 0.8 μg/plate): 211 ± 12^NS
- Number of revertants by plate (Means ± SD), TA100 (S. typhimurium TA100; without S9 mix, 1 μg/plate): 206 ± 14^NS
- IC50 (Plasmodium falciparum W2): 24.4 nM
- Number of revertants by plate (Means ± SD), TA1535 (S. typhimurium TA1535; with S9 mix, 0.4 μg/plate): 22 ± 5^NS
- Number of revertants by plate (Means ± SD), TA1535 (S. typhimurium TA1535; with S9 mix, 0.6 μg/plate): 26 ± 6^NS
- Number of revertants by plate (Means ± SD), TA1535 (S. typhimurium TA1535; with S9 mix, 0.8 μg/plate): 25 ± 8^NS
- Number of revertants by plate (Means ± SD), TA1535 (S. typhimurium TA1535; with S9 mix, 1 μg/plate): 26 ± 7^NS
- Number of revertants by plate (Means ± SD), TA1535 (S. typhimurium TA1535; without S9 mix, 0.4 μg/plate): 26 ± 3^NS
- Number of revertants by plate (Means ± SD), TA1535 (S. typhimurium TA1535; without S9 mix, 0.6 μg/plate): 25 ± 4^NS
- Number of revertants by plate (Means ± SD), TA1535 (S. typhimurium TA1535; without S9 mix, 0.8 μg/plate): 28 ± 8^NS
- Number of revertants by plate (Means ± SD), TA1535 (S. typhimurium TA1535; without S9 mix, 1 μg/plate): 25 ± 6^NS
- mutagenic activity in Salmonella strains (revertant rates) (Salmonella strains): No significant increase in revertant rates
- BI (binucleated cells) (CHO-K1 cells [2]; 5 μM): 432
- CBPI (Cytokinesis-Blocked Proliferative Index) (CHO-K1 cells [2]; 5 μM): 1.86
- CI % (cytostasis index) (CHO-K1 cells [2]; 5 μM): 5%
- MNC1 (micronucleated cell rate) (CHO-K1 cells [2]; 5 μM): 8 ‰
- MNC2 (micronucleated cell rate) (CHO-K1 cells [2]; 5 μM): 12 ‰
- MNC-M (mean of micronucleated cell rates) (CHO-K1 cells [2]; 5 μM): 10 ± 2.8 ‰
- MONO (mononucleated cells) (CHO-K1 cells [2]; 5 μM): 68
- BI (binucleated cells) (CHO-K1 cells [2]; 10 μM): 331
- CBPI (Cytokinesis-Blocked Proliferative Index) (CHO-K1 cells [2]; 10 μM): 1.66
- CI % (cytostasis index) (CHO-K1 cells [2]; 10 μM): 27%
- MNC1 (micronucleated cell rate) (CHO-K1 cells [2]; 10 μM): 9 ‰
- MNC2 (micronucleated cell rate) (CHO-K1 cells [2]; 10 μM): 11 ‰
- MNC-M (mean of micronucleated cell rates) (CHO-K1 cells [2]; 10 μM): 10 ± 1.4 ‰
- MONO (mononucleated cells) (CHO-K1 cells [2]; 10 μM): 169
- BI (binucleated cells) (CHO-K1 cells [2]; 50 μM): 218
- CBPI (Cytokinesis-Blocked Proliferative Index) (CHO-K1 cells [2]; 50 μM): 1.42
- CI % (cytostasis index) (CHO-K1 cells [2]; 50 μM): 52%
- MNC1 (micronucleated cell rate) (CHO-K1 cells [2]; 50 μM): 10 ‰
- MNC2 (micronucleated cell rate) (CHO-K1 cells [2]; 50 μM): 12 ‰
- MNC-M (mean of micronucleated cell rates) (CHO-K1 cells [2]; 50 μM): 11 ± 1.4 ‰
- MONO (mononucleated cells) (CHO-K1 cells [2]; 50 μM): 282
- IC50 [3]: 232 ± 17 nM
- Number of revertants by plate (Means ± SD), TA98 (S. typhimurium TA98; with S9 mix, 0.4 μg/plate): 34 ± 6^NS
- Number of revertants by plate (Means ± SD), TA98 (S. typhimurium TA98; with S9 mix, 0.6 μg/plate): 38 ± 5^NS
- Number of revertants by plate (Means ± SD), TA98 (S. typhimurium TA98; with S9 mix, 0.8 μg/plate): 28 ± 4^NS
- Number of revertants by plate (Means ± SD), TA98 (S. typhimurium TA98; with S9 mix, 1 μg/plate): 26 ± 6^NS
- Number of revertants by plate (Means ± SD), TA98 (S. typhimurium TA98; without S9 mix, 0.4 μg/plate): 35 ± 3^NS
- Number of revertants by plate (Means ± SD), TA98 (S. typhimurium TA98; without S9 mix, 0.6 μg/plate): 33 ± 2^NS
- Number of revertants by plate (Means ± SD), TA98 (S. typhimurium TA98; without S9 mix, 0.8 μg/plate): 34 ± 5^NS
- Number of revertants by plate (Means ± SD), TA98 (S. typhimurium TA98; without S9 mix, 1 μg/plate): 32 ± 6^NS
- Number of revertants by plate (Means ± SD), TA102 (S. typhimurium TA102; with S9 mix, 0.4 μg/plate): 346 ± 8^NS
- Number of revertants by plate (Means ± SD), TA102 (S. typhimurium TA102; with S9 mix, 0.6 μg/plate): 349 ± 12^NS
- Number of revertants by plate (Means ± SD), TA102 (S. typhimurium TA102; with S9 mix, 0.8 μg/plate): 368 ± 11^NS
- Number of revertants by plate (Means ± SD), TA102 (S. typhimurium TA102; with S9 mix, 1 μg/plate): 359 ± 6^NS
- Number of revertants by plate (Means ± SD), TA102 (S. typhimurium TA102; without S9 mix, 0.4 μg/plate): 298 ± 21^NS
- Number of revertants by plate (Means ± SD), TA102 (S. typhimurium TA102; without S9 mix, 0.6 μg/plate): 319 ± 14^NS
- Number of revertants by plate (Means ± SD), TA102 (S. typhimurium TA102; without S9 mix, 0.8 μg/plate): 331 ± 17^NS
- Number of revertants by plate (Means ± SD), TA102 (S. typhimurium TA102; without S9 mix, 1 μg/plate): 339 ± 12^NS
- in vitro micronucleus assay result (clastogenic and/or aneugenic activities) (CHO-K1 cells [4]): negative results

Structure (SMILES): O[C@H](CNCCCCCCF)c1ccc(-c2ccc(C(F)(F)F)cc2)nc1C(F)(F)F [Compound 30s]
- IC50 (P. falciparum 3D7): 421 nM
- IC50 (P. falciparum W2): 97.1 nM

Structure (SMILES): O[C@@H](CNCCCCCCF)c1ccc(-c2ccc(C(F)(F)F)cc2)nc1C(F)(F)F [Compound 30t]
- IC50 (P. falciparum 3D7): 1460 nM
- IC50 (P. falciparum W2): 181 nM
